Data published in PubChem BioAssay (NCI).
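In this assay, cells in 96-well plates receive the compound at five concentrations for 48 hours. Endpoints are linearly interpolated between the surrounding concentrations. GI50 is the concentration that inhibits growth by half. TGI marks complete inhibition of growth.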 Peptide text beside a SMILES is read from it. * marks the point of attachment. X26 = Clc1c(Cl)c(Cl)c(O*)c(Cl)c1Cl; Boc = CC(C)(C)OC(=O)*; OBn = c1ccc(CO*)cc1; Bn = c1ccc(C*)cc1

Experiments:
Assay in all cases: growth of human tumour cells (NCI), 48 h
DU-145 prostate = system: DU-145 prostate
HCT-116 colon = system: HCT-116 colon
HOP-62 NSCLC = system: HOP-62 NSCLC
M14 melanoma = system: M14 melanoma
NCI-H226 lung = system: NCI-H226 lung
NCI/ADR-RES ovarian = system: NCI/ADR-RES ovarian
SK-MEL-2 melanoma = system: SK-MEL-2 melanoma
SK-MEL-5 melanoma = system: SK-MEL-5 melanoma
SNB-75 CNS = system: SNB-75 CNS
T-47D breast = system: T-47D breast

Row | SMILES | TGI (DU-145 prostate) [µM] | TGI (HCT-116 colon) [µM] | TGI (HOP-62 NSCLC) [µM] | TGI (M14 melanoma) [µM] | TGI (NCI-H226 lung) [µM] | TGI (NCI/ADR-RES ovarian) [µM] | TGI (SK-MEL-2 melanoma) [µM] | TGI (SK-MEL-5 melanoma) [µM] | TGI (SNB-75 CNS) [µM] | TGI (T-47D breast) [µM] | GI50 (DU-145 prostate) [µM] | GI50 (M14 melanoma) [µM] | GI50 (NCI-H226 lung) [µM] | GI50 (SK-MEL-2 melanoma) [µM] | GI50 (SK-MEL-5 melanoma) [µM] | GI50 (SNB-75 CNS) [µM] | GI50 (T-47D breast) [µM]
1 | N#Cc1nc(C2CCC(=O)O2)oc1N (stereo not given) | > 100 | > 100 | > 100 | > 100 | > 100 | > 100 | > 100 | > 100 | > 100 |  |  |  |  |  |  |  | 
2 | CC(O)CNC1=CC(=O)C(=O)c2ccccc21 (stereo not given) | 29.1 | 33.9 | 32.4 | 32.1 |  |  | 32.9 | 15 | 29.8 | 45.2 |  |  |  |  |  |  | 
3 | O=c1c(-c2ccccc2)c(SCCN2CCCCCC2)n(-c2ccccc2)c(=S)n1-c1ccccc1 | 66.1 |  | > 100 |  | > 100 | > 100 |  | > 100 | > 100 |  |  |  |  |  |  |  | 
4 | C=C(C)[C@H]1CC(=O)/C(C)=C\CC/C(C)=C/CC[C@@]2(C)O[C@@H]2C1 | 33.4 | 32.8 | > 100 | > 100 |  | 56 | > 100 | 45.5 | > 100 |  |  |  |  |  |  |  | 
5 | CC(C)CC(NC(=O)C(CCC(=O)OCc1ccccc1)NC(=O)OC(C)(C)C)C(=O)NC(COCc1ccccc1)C(=O)NC(Cc1ccccc1)C(=O)Oc1c(Cl)c(Cl)c(Cl)c(Cl)c1Cl (stereo not given) (Boc-E(OBn)LS(Bn)F-X26; configuration not given here) | > 100 | 31.6 |  | 78 |  | 86.8 | 69 | 40.9 | > 100 |  |  |  |  |  |  |  | 
6 | COc1ccc(C2SC(N)=Nc3c2c(C)nn3C(=O)c2ccc(Cl)cc2)cc1OC (stereo not given) | > 10 | > 10 | > 10 | > 10 | > 10 | > 10 | > 10 | > 10 | > 10 | > 10 |  |  |  |  |  |  | 
7 | C#CCOCC12C=CC(O1)C1COC(=O)C12 (stereo not given) | > 100 | > 100 | > 100 | > 100 | > 100 | > 100 |  | > 100 | > 100 | > 100 |  |  |  |  |  |  | 
8 | Oc1c(OCc2nnc(CCCCCCCCc3nnc(COc4ccc5ccccc5c4O)o3)o2)ccc2ccccc12 | > 100 | 35.6 |  | > 100 | > 100 | > 100 | > 100 | > 100 | > 100 |  |  |  |  |  |  |  | 
9 | Cn1c2c(c3ccccc31)CCN1C(=O)C34CCCC3CC21S4 (stereo not given) | > 100 | > 100 | > 100 | > 100 | > 100 | > 100 | > 100 | > 100 |  | > 100 |  |  |  |  |  |  | 
10 | CCN1CCN(Cc2ccc(NC(=O)Nc3ccc(-n4ccc5c(NC(=O)c6ccccc6)nccc54)cc3)cc2C(F)(F)F)CC1 | 2.34 |  |  | 2.39 | 4.84 |  | > 100 | 2.02 | 2.68 | 15.9 | 1.12 | 1.12 | 1.54 | 3.62 | 0.764 | 1.37 | 3.54
11 | Cc1ccc2c(c1C)CC1(Cc3c(C)ccc(C)c3C1=O)C2=O (stereo not given) | > 100 | > 100 |  | > 100 | > 100 | > 100 |  | > 100 | > 100 | > 100 |  |  |  |  |  |  | 
12 | Cc1nc(SCC(N)=O)c2sc(=S)n(-c3ccccc3)c2n1 | > 10 | > 10 | > 10 | > 10 | > 10 | > 10 | > 10 | > 10 | > 10 | > 10 |  |  |  |  |  |  | 
13 | O=P(OCc1ccccc1)(OCc1ccccc1)C(O)/C=C/c1ccccc1 (stereo not given) | > 100 | 39.8 | 55.5 | 37 | 78.3 | 62.9 | 43.8 | 34.6 |  | 88.3 |  |  |  |  |  |  | 
14 | CN(C)CCCNc1cc(O)c2c(c1O)C(=O)c1ccccc1C2=O | 28 | 18.4 | 23.3 | 19.5 | 35.2 | 15.5 | 35.7 | 26.5 |  | 36.5 |  |  |  |  |  |  | 
15 | Cc1nnc2n1-c1ccccc1N(Cc1ccccc1)CC2 | > 100 | > 100 | > 100 | > 100 | > 100 | 69.2 | > 100 | > 100 | > 100 | > 100 |  |  |  |  |  |  | 
16 | O=C1NC(=S)NC(=O)C1C(c1ccc(Cl)cc1)C1C(=O)NC(=S)NC1=O | > 100 | > 100 | > 100 | > 100 | > 100 | > 100 | > 100 | > 100 |  | > 100 |  |  |  |  |  |  | 
17 | CCN(CC)c1ccc(NC(=S)NN(C)C)cc1 | > 10 | > 10 | > 10 | > 10 | > 10 | > 10 | > 10 | > 10 | > 10 | > 10 |  |  |  |  |  |  | 
18 | Cc1ccc(C(=O)Cc2nc3c([nH]c2=O)c(C)nn3-c2ccccc2)c(C)c1 | > 10 | > 10 | > 10 | > 10 |  | > 10 |  | > 10 | 3.46 | > 10 |  |  |  |  |  |  | 
19 | C[n+]1c(-c2ccc(NC(=O)c3ccc(C(=O)Nc4ccc(-c5cn6ccccc6[n+]5C)cc4)cc3)cc2)cn2ccccc21 | > 100 | > 100 | > 100 | > 100 | > 100 | > 100 | > 100 | > 100 | > 100 | > 100 |  |  |  |  |  |  | 
20 | COc1cc2c3c(cc(Cl)nc3c1OC)C(=O)C(=O)N2 | 30.8 | 13.6 | 34.7 | 29.3 | 41.5 | 53.1 | 27.6 | 32.4 | 29.4 | > 100 |  |  |  |  |  |  | 
21 | O=[N+]([O-])/C(Cl)=C(/C(Cl)=C(Cl)Cl)N1CCCCC1 | 27 | 18.9 | 40.8 | 23.3 | 34.1 | 19.1 | 48 | 20.2 | 56 | 34 |  |  |  |  |  |  | 
22 | Cc1cn(CCCCCOC(=O)NC(CCCNC(N)=O)C(=O)O)c(=O)[nH]c1=O (stereo not given) | > 100 | > 100 | > 100 | > 100 | > 100 | > 100 | > 100 |  | > 100 | > 100 |  |  |  |  |  |  | 
